# From patent US10196668B2, “Reagents and methods for screening MPS I, II, IIIA, IIIB, IVA, VI, and VII” (University of Washington through its Center for …, priority 2013, dated 2019)
# Where a name gives a salt, the structure may show the parent alone.
# Assays:
# [1] = target: T1, alpha-L-iduronidase (MPS-I enzyme) (Homo sapiens, UniProt P35475); assay: MPS-I enzyme assay with dried blood spot punch, LC/MSMS; type: biochemical
# T1 construct: from tissue; host or cells: dried blood spot (3 mm punch)
# T1 sequence (P35475 28-653): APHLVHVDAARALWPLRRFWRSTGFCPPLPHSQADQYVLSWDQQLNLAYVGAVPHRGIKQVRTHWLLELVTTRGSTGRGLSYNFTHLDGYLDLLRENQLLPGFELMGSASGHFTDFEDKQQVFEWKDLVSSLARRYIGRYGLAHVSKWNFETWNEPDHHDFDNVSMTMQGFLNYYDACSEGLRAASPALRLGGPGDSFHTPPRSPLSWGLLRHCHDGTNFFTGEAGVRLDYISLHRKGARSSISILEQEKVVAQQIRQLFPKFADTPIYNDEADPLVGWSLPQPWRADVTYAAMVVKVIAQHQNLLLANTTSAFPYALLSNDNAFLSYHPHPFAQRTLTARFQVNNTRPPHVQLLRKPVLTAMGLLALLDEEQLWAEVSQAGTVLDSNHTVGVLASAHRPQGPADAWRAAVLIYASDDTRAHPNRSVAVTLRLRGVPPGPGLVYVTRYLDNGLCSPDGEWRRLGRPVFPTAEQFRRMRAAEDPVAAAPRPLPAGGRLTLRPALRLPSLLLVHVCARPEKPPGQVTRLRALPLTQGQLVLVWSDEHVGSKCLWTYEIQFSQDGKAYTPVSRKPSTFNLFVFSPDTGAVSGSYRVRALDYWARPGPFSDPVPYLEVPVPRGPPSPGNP
# Procedure: The original and alternative MPS-I substrates were compared in side-by-side enzyme assays as follows: 0.5 mM substrate, 3.5 uM internal standard in 30 uL of buffer (100 mM ammonium formate, pH 4.0). A 3 mm punch of a dried blood spot was added, and the mixtures were incubated with shaking for 16 hours at 37 deg C. The reactions were quenched by addition 120 uL of acetonitrile. The wells were centrifuged, and 120 uL of supernatant was transferred to a new well. The sample was diluted by addition of 120 uL of water, and 10 uL was injected onto the LC/MSMS system. The LC and MS/MS conditions are as published (Spacil, Z., Tatipaka, H., Barcenas, M., Scott, C. R., Turecek, F., Gelb, M. H. (2012) “High-Throughput Assay of 9 Lysosomal Enzymes for Newborn Screening.” Clinical Chemistry., 59 (3), […]). A blank assay is also carried out in which a blood-free 3 mm punch of filter paper is substituted for the dried blood spot. The blank is incubated and processed as above.
# [2] = target: T2, N-acetylgalactosamine-6-sulfatase (GALNS) (Homo sapiens, UniProt P34059); assay: GALNS (MPS-IVA) assay with beta-NGA and Z-PUG-NAc, UHPLC-MS/MS; type: biochemical
# T2 construct: Representative assays use dried blood spots on newborn screening cards as a source of GALNS; from tissue; host or cells: dried blood spot from a random newborn (3 mm punch)
# T2 sequence (P34059 27-522): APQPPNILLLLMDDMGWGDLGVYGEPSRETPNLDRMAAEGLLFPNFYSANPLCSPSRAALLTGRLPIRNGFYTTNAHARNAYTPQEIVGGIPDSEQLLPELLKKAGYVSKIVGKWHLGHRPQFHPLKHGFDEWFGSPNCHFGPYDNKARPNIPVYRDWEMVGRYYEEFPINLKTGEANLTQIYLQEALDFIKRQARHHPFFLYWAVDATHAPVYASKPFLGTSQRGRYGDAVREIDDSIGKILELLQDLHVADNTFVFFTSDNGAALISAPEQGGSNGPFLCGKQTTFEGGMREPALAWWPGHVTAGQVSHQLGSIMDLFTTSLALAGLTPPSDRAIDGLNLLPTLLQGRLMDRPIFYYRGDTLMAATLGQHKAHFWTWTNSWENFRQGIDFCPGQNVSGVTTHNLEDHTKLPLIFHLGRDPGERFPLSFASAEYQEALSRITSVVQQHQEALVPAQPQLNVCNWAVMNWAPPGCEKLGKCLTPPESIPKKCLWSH
# Procedure: (§1) Experiment 1. A 3 mm punch of a dried blood spot from a random newborn is incubated with 0.03 mL of assay cocktail consisting of 1 mM GALNS substrate in 50 mM ammonium formate pH 4.0 containing 7.5 mM barium acetate, 5.0 mM cerium acetate, 1 mM Z-PUG-NAc, and 0.01 mg of bacterial beta-N-acetylgalactosaminidase. The mixture also contains 0.005 mM internal standard. After 16 hrs at 37° C. with shaking, the mixture is quenched with 0.12 mL of acetonitrile and the sample plate is centrifuged to pellet the precipitate. Supernatant (0.12 mL) is transferred to a new plate, and 0.12 mL of water is added. The plate is placed on the autosampler of the UHPLC-MS/MS instrument (Waters Xevo TQ MS/MS with a Waters Acquity UHPLC system). A portion of the sample (0.01 mL) is injected, and the GALNS product (substrate minus sulfate), the internal standard, and the aglycones derived from the GALNS product and internal standard are quantified by multiple reaction monitoring (MS/MS). Note the internal standard added, like the GALNS product, is converted to its aglycone by the addition of bacterial beta-N-acetylgalactosaminidase.
# (§2) Experiment 2. Experiment 2 is the same as Experiment 1 but uses a punch of filter paper (no blood). Most of the internal standard is converted to the aglycone showing that the added beta-NGA is working. The amount of aglycone is only 42,000, about 10-fold lower than that seen in the presence of blood. […] Furthermore when a dried blood spot from a confirmed Morquio A patient is used, the amount of aglycone is similar to that seen in the absence of blood (45,000) showing that the assay is working to detect only the GALNS present in blood from a non-affected individual.
# (§3) Experiment 3. […] As expected, most of the internal standard is not converted to its aglycone, because is no beta-NAG and any hexosaminidase A coming from the blood is blocked by Z-PUG-NAc. The amount of GALNS product is 121,000 and the amount of aglycone is 42,900.
# (§4) Experiment 4. Experiment 4 is the same as Experiment 3, but without blood. […] Thus, most of the 121,000 product counts in Experiment 3 is due to GALNS. The product counts in Experiment 3 cannot be due to hexosaminidase A, because only beta-NGA generates the aglycone. The amount of aglycone in Experiments 3 and 4 are similar, and this represents aglycone present in the GALNS substrate as a contaminant.
# (§5) Experiment 5. […] Most of the internal standard is converted to its aglycone as expected because beta-NGA is present. The signal for aglycone is 1,350,000, much larger than in Experiment 1.
# (§6) Experiment 6. Experiment 6 contains blood but no beta-NGA and no Z-PUG-NAc. The amount of GALNS product is 110,000 instead of 25,100 as in Experiment 5, which is due to the action of GALNS on the GALNS substrate. Because beta-NGA is absent, only a small amount of GALNS product is converted to aglycone, but the amount of aglycone remains high at 1,110,000. This is because of the action of hexosaminidase A in the blood on GALNS substrate in the absence of Z-PUG-NAc.
# (§7) Experiments 7 and 8. Experiments 7 and 8 are with filter paper (no blood). […] As expected, most of the internal standard is converted to aglycone in Experiment 7, but not in Experiment 8. […] These can be removed by a further round of purification of GALNS substrate.
# [3] = tested on: N-acetylgalactosamine-6-sulfatase (GALNS); assay: as above; type: biochemical, human
# Procedure: as §1, §2, §3, §4, §5, §6, §7
# [4] = target: T3, iduronate-2-sulfatase (MPS-II enzyme) (Homo sapiens, UniProt P22304); assay: MPS-II enzyme assay with dried blood spot punch, tandem mass spectrometry; type: biochemical
# T3 construct: from tissue; host or cells: dried blood spot (3 mm punch)
# T3 sequence (P22304 34-550): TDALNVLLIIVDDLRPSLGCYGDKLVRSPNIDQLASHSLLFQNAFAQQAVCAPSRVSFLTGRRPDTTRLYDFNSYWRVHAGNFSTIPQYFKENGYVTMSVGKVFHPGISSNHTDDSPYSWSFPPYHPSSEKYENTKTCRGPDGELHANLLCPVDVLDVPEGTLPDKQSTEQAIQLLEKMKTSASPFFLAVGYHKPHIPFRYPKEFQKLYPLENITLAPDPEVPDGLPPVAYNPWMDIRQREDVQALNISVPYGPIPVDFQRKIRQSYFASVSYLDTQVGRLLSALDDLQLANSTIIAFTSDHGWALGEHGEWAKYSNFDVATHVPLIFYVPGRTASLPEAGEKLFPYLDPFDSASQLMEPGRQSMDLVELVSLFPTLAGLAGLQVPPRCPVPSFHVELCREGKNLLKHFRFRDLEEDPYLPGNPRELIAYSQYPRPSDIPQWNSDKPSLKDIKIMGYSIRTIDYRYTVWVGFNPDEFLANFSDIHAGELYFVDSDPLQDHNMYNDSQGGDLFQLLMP
# Procedure: The original and alternative MPS-II substrates were compared in side-by-side enzyme assays as follows: 1 mM substrate, 5 uM internal standard in 30 uL of buffer (100 mM ammonium formate, pH 4.0, 7.5 mM barium(II) acetate, 5.0 mM cerium(III) acetate). A 3 mm punch of a dried blood spot was added, and the mixtures were incubated with shaking for 16 hours at 37 deg C. The reactions were quenched by addition of 200 uL of 44 mM citric acid followed by addition of 400 uL ethyl acetate and 100 uL of water. After mixing up and down a few times with the pipet, the samples were centrifuged (10 min at 3000 rpm) to separate the liquid layers. A 200 uL portion of the upper ethyl acetate layer was transferred to a new well, and solvent was removed by evaporation with a stream of oil-free air. The residue was taken up in 100 uL of methanol/5 mM aqueous ammonium formate (80/20, v/v) and infused into the tandem mass spectrometer. The barium and cerium salts are present to precipitate free sulfate and phosphate present in the dried blood spot since these anions cause production inhibition of the MPS-II enzyme. The citric acid is used to acidify the mixture so that the carboxylate of the iduronic acid portion of the MPS-II product and internal standard is protonated and is extracted into ethyl acetate. […]
# [5] = activity with dried blood spot punch to that with blood-free punch
# [6] = Expt. 1: 3 mm dried blood spot punch, 1 mM Z-PUG-NAc, 0.01 mg beta-NGA
# [7] = Expt. 3: 3 mm dried blood spot punch, 1 mM Z-PUG-NAc, no beta-NGA
# [8] = Expt. 5: 3 mm dried blood spot punch, 0.01 mg beta-NGA, no Z-PUG-NAc
# [9] = Expt. 6: 3 mm dried blood spot punch, Nothing added (no beta-NGA, no Z-PUG-NAc)
# [10] = Expt. 2: 3 mm filter paper punch (no blood), 1 mM Z-PUG-NAc, 0.01 mg of bacterial enzyme
# [11] = Expt. 4: 3 mm filter paper punch (no blood), 1 mM Z-PUG-NAc, no beta-NGA
# [12] = Expt. 7: 3 mm filter paper punch (no blood), 0.01 mg beta-NGA, no Z-PUG-NAc
# [13] = Expt. 8: 3 mm filter paper punch (no blood), Nothing added
structure (smiles),measurement,setting,value
CC(=O)N(CCCCCCNC(=O)c1ccccc1)CCC(=O)Nc1ccc(OC2OC(C(=O)O)C(O)C(O)C2O)cc1 (stereo not shown) [Alternative MPS-I],Enzymatic Activity,"[1]; 0.5 mM substrate, 3 mm dried blood spot punch, pH 4.0, 16 hours at 37 deg C",2.5 umole/hr/L blood
same,blood-no blood assay ratio,[1]; [5],34
"CCCCC(=O)N(CCCCCNC(=O)c1ccccc1)CCC(=O)Nc1ccc(OC2OC(COS(=O)(=O)O)C(O)C(O)C2NC(C)=O)cc1 [GALNS substrate, Sodium ((2R,3R,4R,5R,6S)-5-acetamido-6(4(3(N (5-benzamidopentyl)-pentanamido)propanamido)phenoxy)-3,4-dihydroxytetrahydro-2H-pyran-2-yl)methyl sulfate]",GALNS product (substrate without sulfate) peak area,[2]; [6],"46,100"
same,aglycone peak area (product without sugar),[2]; [6],"411,000"
same,GALNS product (substrate without sulfate) peak area,[2]; [7],"121,000"
same,GALNS product (substrate without sulfate) peak area,[2]; [8],"25,100"
same,GALNS product (substrate without sulfate) peak area,[2]; [9],"110,000"
same,GALNS product (substrate without sulfate) peak area,[3]; [10],422
same,aglycone peak area (product without sugar),[3]; [10],"42,000"
same,aglycone peak area (product without sugar),[3]; [7],"42,900"
same,GALNS product (substrate without sulfate) peak area,[3]; [11],753
same,aglycone peak area (product without sugar),[3]; [11],"22,700"
same,aglycone peak area (product without sugar),[3]; [8],"1,350,000"
same,aglycone peak area (product without sugar),[3]; [9],"1,110,000"
same,GALNS product (substrate without sulfate) peak area,[3]; [12],253
same,aglycone peak area (product without sugar),[3]; [12],"19,800"
same,GALNS product (substrate without sulfate) peak area,[3]; [13],820
same,aglycone peak area (product without sugar),[3]; [13],"14,500"
same,amount of aglycone (peak area),"[3]; dried blood spot from a confirmed Morquio A patient, 1 mM Z-PUG-NAc, 0.01 mg beta-NGA","45,000"
CCCCC(=O)N(CCCCCCNC(=O)c1ccccc1)CCC(=O)Nc1ccc(OC2OC(C(=O)O)C(O)C(O)C2OS(=O)(=O)O)cc1 (stereo not shown) [Alternative MPS-II],Enzymatic Activity,"[4]; 1 mM substrate, 3 mm dried blood spot punch, pH 4.0, 16 hours at 37 deg C",6 umole/hr/L blood
same,blood-no blood assay ratio,[4]; [5],53
[2H]c1c([2H])c([2H])c(C(=O)NCCCCCN(CCC(=O)Nc2ccc(OC3OC(CO)C(O)C(O)C3NC(C)=O)cc2)C(=O)CCCC)c([2H])c1[2H] (stereo not shown) [GALNS internal standard],GALNS internal standard peak area,[3]; [6],278
same,internal standard aglycone peak area,[3]; [6],"54,400"
same,GALNS internal standard peak area,[3]; [10],"3,290"
same,internal standard aglycone peak area,[3]; [10],"15,900"
same,GALNS internal standard peak area,[3]; [7],"23,500"
same,internal standard aglycone peak area,[3]; [7],940
same,GALNS internal standard peak area,[3]; [11],"14,700"
same,internal standard aglycone peak area,[3]; [11],412
same,GALNS internal standard peak area,[3]; [8],852
same,internal standard aglycone peak area,[3]; [8],"49,200"
same,GALNS internal standard peak area,[3]; [9],"17,900"
same,internal standard aglycone peak area,[3]; [9],"17,100"
same,GALNS internal standard peak area,[3]; [12],"1,920"
same,internal standard aglycone peak area,[3]; [12],"22,200"
same,GALNS internal standard peak area,[3]; [13],"12,100"
same,internal standard aglycone peak area,[3]; [13],648
